Assay results from publication PMC9558510 (Cancers, 2022).

Key:
[1] = Observed steady-state serum concentrations (LC-MS/MS) in melanoma patients; format: in vivo, human
Description: Serum samples were collected regularly during each routine outpatient visit from study enrollment until January 2022 or until treatment discontinuation. If possible, blood sampling was performed before the next drug administration, but any time interval between the last administration and blood withdrawal was accepted. The steady-state was assumed after continuous dosing for fourteen days for both compounds.
Hydroxy-dabrafenib concentrations were analyzed using a different previously published LC-MS/MS method with an LLOQ of 10 ng/mL [37]. […] Hydroxy-dabrafenib was not quantified in capillary blood samples as the methodology was not available at the time of analysis. All the methods have been validated according to the guidelines of the U.S. Food and Drug Administration and/or the European Medicines Agency.
(§1) Data were collected and processed using Microsoft Excel 2016 Version 16.0 (Microsoft Corporation, Redmond, WA, USA). Statistical calculations and visualization of results were performed with R Studio Version 1.2.5042 (RStudio Incorporation, Boston, MA, USA) running R version 4.0.5 (R Foundation for Statistical Computing, Vienna, Austria, 2020). For further analysis, serum concentrations were divided into groups according to time interval post-dose as follows: 0–5 h, 5–10 h, 10–14 h, and >14 h for (hydroxy-)dabrafenib and 0–10 h, 10–20 h, 20–30 h, and >30 h for trametinib. Concentrations < LLOQ were excluded from further statistical analyses. The concentrations of the same patient at the same dosage and within the same post-dose group were summarized into an individual mean serum concentration for descriptive statistical analysis to account for potential bias caused by the unbalanced number of samples per patient. […] The Wilcoxon […] test was used for unpaired samples. The correlations between individual PK parameters sampled from the conditional distribution during the generation of EBE (methods for estimation see below) and age, sex, body mass index (BMI), and co-medication were analyzed using analysis of variance (ANOVA) and Spearman’s correlation coefficient. Logistic regression was used to compare the risk of treatment discontinuations or dose reductions (dabrafenib dose reduction or discontinuation, trametinib dose reduction or discontinuation, or any dose reduction or discontinuation) with the corresponding predicted trough concentrations and area under the curve of a dosing interval (AUCτ) of dabrafenib, hydroxy-dabrafenib, and trametinib as well as with the composite predicted dabrafenib/hydroxy-dabrafenib trough concentration and with composite dabrafenib/hydroxy-dabrafenib AUCτ assuming standard dosing. The Hosmer–Lemeshow test was used to evaluate the goodness of fit for our logistic regression model. Due to the explorative nature of the study, p-values obtained from multiple comparisons were not corrected for multiple testing. A p-value < 0.05 was considered statistically significant.

[2] = Logistic regression of dose reduction/discontinuation vs predicted exposure; format: in vivo, human; conditions: logistic regression, standard dosing assumed
Description: as §1

[3] = Empirical Bayesian estimates of serum AUCτ and Cmin from serum samples with existing popPK models; conditions: steady state, 150 mg q12h dabrafenib
Description: For each compound, a popPK model developed by Balakirouchenane et al. was assessed regarding its suitability to create EBE using Monolix 2021R1 (Lixoft SAS, Antony, Fance). […] The predictive performance of the models was estimated by calculating the prediction error (PE), mean prediction error (MPE), mean absolute prediction error (MAPE), and mean relative deviation (MRD):(1) PEi[%]=Cpredicted,i−Cobserved,i/Cobserved,i·100 (2) MPE[%]=1/n∑i=1nPEi (3) MAPE[%]=1/n∑i=1n|PEi| (4) MRD=10^x;x=1/n∑i=1n(log10[Cpredicted,i]−log10[Cobserved,i])^2
Estimates for AUCτ were generated for every occasion for the standard doses (150 mg q12h for dabrafenib, 2 mg q24h for trametinib). In addition, the individual predicted Cmin at a steady state was generated since not all patients contributed trough samples. The same estimates were used in the logistic regression model.

[4] = serum, dabrafenib dose of 150 mg q12h
[5] = standard dose, BMI (kg/m2) < 30
[6] = standard dose, BMI (kg/m2) >= 30
[7] = standard dose, P-gp inducer: no
[8] = standard dose, P-gp inducer: yes
[9] = standard dose, P-gp inhibitor: no
[10] = standard dose, P-gp inhibitor: yes
[11] = standard dose, age above 65: no
[12] = standard dose, age above 65: yes
[13] = standard dose, moderate CYP2C8 inhibitor: no
[14] = standard dose, moderate CYP2C8 inhibitor: yes

- median of individual mean trough concentration [1, 4]: 76.0 ng/mL
- range of individual mean trough concentration [1, 4]: 37.2 to 171.0 ng/mL
- effect of co-medication with at least one P-gp inducer on individual mean trough concentrations ([1]; serum, standard dose): no effect
- serum Cmin mean [1, 5]: 73.6 ng/mL
- serum Cmin median [1, 5]: 72.9 ng/mL
- serum Cmin mean [1, 6]: 97.6 ng/mL
- serum Cmin median [1, 6]: 68.3 ng/mL
- serum Cmin mean [1, 7]: 101 ng/mL
- serum Cmin median [1, 7]: 90.9 ng/mL
- serum Cmin mean [1, 8]: 62.1 ng/mL
- serum Cmin median [1, 8]: 56.6 ng/mL
- serum Cmin mean [1, 9]: 100 ng/mL
- serum Cmin median [1, 9]: 78 ng/mL
- serum Cmin mean [1, 10]: 77.3 ng/mL
- serum Cmin median [1, 10]: 70.2 ng/mL
- serum Cmin mean ([1]; standard dose, PPI: no): 93.1 ng/mL
- serum Cmin median ([1]; standard dose, PPI: no): 78 ng/mL
- serum Cmin mean ([1]; standard dose, PPI: yes): 53.7 ng/mL
- serum Cmin median ([1]; standard dose, PPI: yes): 53.7 ng/mL
- serum Cmin mean [1, 11]: 92.7 ng/mL
- serum Cmin median [1, 11]: 77.6 ng/mL
- serum Cmin mean [1, 12]: 66.2 ng/mL
- serum Cmin median [1, 12]: 55.6 ng/mL
- serum Cmin mean [1, 13]: 89.4 ng/mL
- serum Cmin median [1, 13]: 78 ng/mL
- serum Cmin mean [1, 14]: 86.3 ng/mL
- serum Cmin median [1, 14]: 76.6 ng/mL
- serum Cmin mean ([1]; standard dose, sex female): 86 ng/mL
- serum Cmin median ([1]; standard dose, sex female): 68.3 ng/mL
- serum Cmin mean ([1]; standard dose, sex male): 77.3 ng/mL
- serum Cmin median ([1]; standard dose, sex male): 72.9 ng/mL
- median of the average predicted trough concentrations [3]: 84.5 ng/mL
- median of the average predicted AUCτ ([3]; average over all observations per patient): 6040 ng·h/mL
Compound: CC(C)(CO)c1nc(-c2cccc(NS(=O)(=O)c3c(F)cccc3F)c2F)c(-c2ccnc(N)n2)s1 [hydroxy-dabrafenib]
- relationship between dose reduction or discontinuation due to AE and predicted serum trough concentrations or AUCτ [2]: no significant relationships
